Results: patent EP4741386A1 (Jiangsu Yahong Meditech Co., Ltd., priority 2023, dated 2025)

How the values were obtained:
[1] = target: T1, Recombinant human His6-USP1/His6-UAF1 complex protein (Homo sapiens, UniProt O94782); assay: In vitro inhibitory activity against USP1 (Ubiquitin Rhodamine 110 fluorescence detection, 384-well plate); format: biochemical; details: Ub-Rho substrate, 1 hour pre-incubation, read after 30 minutes
T1 construct: His6; purchased R&D E-568-050
Procedure, shortened: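 Compounds, kept as 50 mM DMSO stocks, were acoustically dispensed into modified Tris buffer. Inhibition of recombinant human His6-USP1/His6-UAF1 was read by fluorescence from cleavage of Ub-Rho110 substrate.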

MDA-MB-436 = assay: CTG experiment for cell viability (CellTiter-Glo, 96-well plate, 7 days); format: cell-based; details: Homo sapiens, MDA-MB-436, 168 h, MDA-MB-436 cells, 7 days culture with compound
Procedure: Test Example 2: CTG experiment for cell viability
• 1. Object: to screen USP1 inhibitors by a CTG assay, using a 96-well plate. • 2. Materials: • The cells used were MDA-MB-436 (manufacturer: Nanjing Cobioer Biotechnology Co., Ltd.) and cultured in DMEM medium, • CTG (CellTiter-Glo® Luminescent Cell Viability Assay kit) (Promega, Cat. No.: G7572), • 96-well plate (Corning, Cat. No.: 3610). • 3. Compounds: all compounds were dissolved in 100% DMSO to obtain 50 mM stock solutions. • 4. Experimental method: • ① Plating: The cells to be tested were spread into a 96-well plate at a certain density, with 200 µL per well, and 200 µL of cell medium was added to the blank wells. […] The cell plate with the compounds was placed in an incubator at 37°C, and further cultured for 7 days prior to detection. • ④ Assay: The substrate and the buffer of CTG kit were mixed evenly. The cell plate with the compounds in Step ③ was taken out from the incubator, and left at room temperature to equilibrate for 30 minutes. The medium containing the compounds was removed from the cell plate, 100 µL of PBS and 50 µL of CTG reagent were added to each well, shaken and mixed for 3 minutes, and then incubated for 10 minutes at room temperature. The plate was read by a BIotek microplate-reader, with a parameter set to 567 CPM. • 5. Curve fitting
It was the same as that for the enzyme.

T1 sequence (O94782 whole entry): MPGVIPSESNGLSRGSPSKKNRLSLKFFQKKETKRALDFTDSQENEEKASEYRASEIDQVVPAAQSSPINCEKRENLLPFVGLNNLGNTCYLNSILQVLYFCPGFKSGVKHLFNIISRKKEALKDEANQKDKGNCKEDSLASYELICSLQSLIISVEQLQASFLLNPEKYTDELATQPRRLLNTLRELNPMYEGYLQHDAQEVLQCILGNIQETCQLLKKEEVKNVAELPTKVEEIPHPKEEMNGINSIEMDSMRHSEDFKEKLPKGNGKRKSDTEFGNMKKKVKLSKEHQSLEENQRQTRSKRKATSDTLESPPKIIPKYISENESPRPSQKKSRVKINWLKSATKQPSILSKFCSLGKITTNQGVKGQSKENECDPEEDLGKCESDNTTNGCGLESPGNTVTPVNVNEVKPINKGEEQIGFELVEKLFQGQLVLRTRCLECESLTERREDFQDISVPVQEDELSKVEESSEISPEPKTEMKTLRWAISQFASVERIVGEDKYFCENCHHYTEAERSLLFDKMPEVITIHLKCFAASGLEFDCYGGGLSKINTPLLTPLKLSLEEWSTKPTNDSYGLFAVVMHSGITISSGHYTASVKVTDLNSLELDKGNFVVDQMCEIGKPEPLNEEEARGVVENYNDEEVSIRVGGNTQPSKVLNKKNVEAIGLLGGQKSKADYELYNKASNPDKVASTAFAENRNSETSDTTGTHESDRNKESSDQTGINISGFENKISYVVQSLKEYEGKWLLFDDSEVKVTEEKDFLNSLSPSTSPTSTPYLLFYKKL
T1 sequence (Q8TAF3 whole entry partner): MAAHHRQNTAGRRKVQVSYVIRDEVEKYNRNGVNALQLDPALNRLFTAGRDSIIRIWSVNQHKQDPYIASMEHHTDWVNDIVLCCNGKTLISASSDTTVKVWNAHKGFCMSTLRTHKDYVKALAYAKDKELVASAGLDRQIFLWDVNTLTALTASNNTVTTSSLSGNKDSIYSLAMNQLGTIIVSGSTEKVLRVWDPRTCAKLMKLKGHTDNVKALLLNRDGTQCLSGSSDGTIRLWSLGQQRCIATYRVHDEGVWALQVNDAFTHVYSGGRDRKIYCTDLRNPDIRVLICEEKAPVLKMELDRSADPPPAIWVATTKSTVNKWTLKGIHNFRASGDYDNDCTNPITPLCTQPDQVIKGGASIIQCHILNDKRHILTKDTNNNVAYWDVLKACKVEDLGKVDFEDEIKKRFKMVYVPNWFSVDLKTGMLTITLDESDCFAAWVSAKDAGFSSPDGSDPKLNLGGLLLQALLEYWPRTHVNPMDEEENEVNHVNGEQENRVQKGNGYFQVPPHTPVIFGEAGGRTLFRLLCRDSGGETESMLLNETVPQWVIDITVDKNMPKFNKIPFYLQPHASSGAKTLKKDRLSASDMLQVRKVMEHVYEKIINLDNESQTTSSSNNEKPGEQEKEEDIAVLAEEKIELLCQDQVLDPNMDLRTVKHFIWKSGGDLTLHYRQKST

Row | Compound | IC50 [1] [nM] | IC50 (MDA-MB-436) [nM]
1 | COc1cnc(-c2c(OC)ncnc2C(F)(F)F)nc1NCC12CCC(c3nc(C(F)(F)F)cn3C(C)C)(CC1)OC2 [Example S15, N-((1-(1-Isopropyl-4-(trifluoromethyl)-1H-imidazol-2-yl)-2-oxabicyclo[2.2.2]oct-4-yl)methyl)-4',5-dimethoxy-6'-(trifluoromethyl)-[2,5'-bipyrimidin]-4-amine] | 91 | 239
2 | COc1cnc(-c2c(OC)ncnc2C2CC2)nc1NCC12CCC(c3nc(C(F)(F)F)cn3C3CCC3)(CC1)OC2 [Example S16, N-((1-(1-Cyclobutyl-4-(trifluoromethyl)-1H-imidazol-2-yl)-2-oxabicyclo[2.2.2]oct-4-yl)methyl)-4'-cyclopropyl-5,6'-dimethoxy-[2,5'-bipyrimidin]-4-amine] | 34 | 40.3
3 | COc1ncnc(C2CC2)c1-c1ncc(OC(C)C)c(N(C)CC2CCN(c3nc(C(F)(F)F)cn3C)CC2)n1 [Example 108, 4'-Cyclopropyl-5-isopropoxy-6'-methoxy-N-methyl-N-((1-(1-methyl-4-(trifluoromethyl)-1H-imidazol-2-yl)piperidin-4-yl)methyl)-[2,5'-bipyrimidin]-4-amine] | 19.7 | 353
4 | COc1cnc(-c2cccnc2C(C)C)nc1NCC12C3C4C1C1C2C3C41c1nc(C(F)(F)F)cn1C (stereo not drawn) [Example S42, 2-(2-isopropylpyridin-3-yl)-5-methoxy-N-((4-(1-methyl-4-(trifluoromethyl)-1H-imidazol-2-yl)cuban-1-yl)methyl)pyrimidin-4-amine] | 1.2 | 3.5
5 | COc1cnc(-c2c(OC)ncnc2C2CC2)nc1N(C)CC1CCN(c2nc(C(F)(F)F)cn2C)CC1 [Example 92, 4'-Cyclopropyl-5,6'-dimethoxy-N-methyl-N-((1-(1-methyl-4-(trifluoromethyl)-1 H-imidazol-2-yl)piperidin-4-yl)methyl)-[2,5'-bipyrimidin]-4-amine] | 3.3 | 27.3
6 | COc1cnc(-c2c(OC)ncnc2C2CC2F)nc1N(C)C[C@H]1CC[C@H](c2nc(C(F)(F)F)cn2C)CC1 (stereo partly drawn) [Example S35] | 6.8 | 3.5
7 | COc1cnc(-c2c(OC)ncnc2C2CC2(F)F)nc1N(C)CC1CCC(c2nc(C(F)(F)F)cn2C)CC1 [Example S49, 4'-(2,2-difluorocyclopropyl)-5,6'-dimethoxy-N-methyl-N-((1R,4R)-4-(1-methyl-4-(trifluoromethyl)-1H-imidazol-2-yl)cyclohexyl)methyl)-[2,5'-bipyrimidin]-4-amine] | 3.1 | 0.7
8 | COc1cnc(-c2cccnc2C2CC2)nc1NCC1CCN(c2nc(C(F)(F)F)cn2C)CC1 [Example 152, 2-(2-Cyclopropylpyridin-3-yl)-5-methoxy-N-((1-(1-methyl-4-(trifluoromethyl)-1H-imidazol-2-yl)piperidin-4-yl)methyl)pyrimidin-4-amine] | 7.5 | 64.4
9 | COc1ncnc(C2CC2)c1-c1ncc(OC(C)C)c(N(C)Cc2ccc(-c3nc(C(F)(F)F)cn3C)cc2)n1 [Example 109, 4'-Cyclopropyl-5-isopropoxy-6'-methoxy-N-methyl-N-(4-(1-methyl-4-(trifluoromethyl)-1H-imidazol-2-yl)benzyl)-[2,5'-bipyrimidin]-4-amine] | 5.3 | 48.3
10 | COc1cc(-n2nc(C(F)(F)F)cc2C)ccc1CNc1nc(-c2c(OC)ncnc2C2CC2)ncc1OC [Example 102, 4'-Cyclopropyl-5,6'-dimethoxy-N-(2-methoxy-4-(5-methyl-3-(trifluoromethyl)-1H-pyrazol-1-yl)benzyl)-[2,5'-bipyrimidin]-4-amine] | 4.4 | 15.8
11 | COc1ncnc(C2CC2)c1-c1ncc(Cl)c(NCc2ccc(-c3nc(C(F)(F)F)cn3CF)cc2)n1 [Example 126, 5-Chloro-4'-cyclopropyl-N-(4-(1-(fluoromethyl)-4-(trifluoromethyl)-1H-imidazol-2-yl)benzyl)-6'-methoxy-[2,5'-bipyrimidin]-4-amine] | 13 | 22.7
12 | COc1cc(CNc2nc(-c3c(OC)ncnc3C3CC3)nc3ccoc23)ccc1-c1nc(C(F)(F)F)cn1C [Example 120, 2-(4-Cyclopropyl-6-methoxypyrimidin-5-yl)-N-(3-methoxy-4-(1-methyl-4-(trifluoromethyl)-1H-imidazol-2-yl)benzyl)furo[3,2-d]pyrimidin-4-amine] | 8.9 | 50.5

Next, values leading:

Row | IC50 [1] [nM] | IC50 (MDA-MB-436) [nM] | Compound
13 | 2.1 | 41.4 | CC(C)n1ncc(Cl)c1-c1nc(NCc2ccc(-c3ccccn3)cc2)c2occc2n1 [Example 166, 2-(4-Chloro-1-isopropyl-1H-pyrazol-5-yl)-N-(4-(pyridin-2-yl)benzyl)furo[3,2-d]pyrimidin-4-amine]
14 | 2.9 | 14.5 | COc1cnc(-c2ccccc2C2CC2)nc1NCc1ccc(-n2nc(C(F)(F)F)cc2C)cc1 [Example 170, 2-(2-Cyclopropylphenyl)-5-methoxy-N-(4-(5-methyl-3-(trifluoromethyl)-1H-pyrazol-1-yl)benzyl)pyrimidin-4-amine]
15 | 5.6 | 28.7 | COc1cnc(-c2c(C)cnn2C2CC2)nc1NCc1ccc(-c2nc(C(F)(F)F)cn2C)cc1 [Example 199, 2-(1-Cyclopropyl-4-methyl-1H-pyrazol-5-yl)-5-methoxy-N-(4-(1-methyl-4-(trifluoromethyl)-1H-imidazol-2-yl)benzyl)pyrimidin-4-amine]
16 | 19.4 | 536 | COc1ncnc(C2CC2)c1-c1nc(NCc2ccc(OCc3ccccn3)cc2)c2occc2n1 [Example 116, 2-(4-Cyclopropyl-6-methoxypyrimidin-5-yl)-N-(4-(pyridin-2-ylmethoxy)benzyl)furo[3,2-d]pyrimidin-4-amine]
17 | 6 | 8.8 | C#Cc1cnc(-c2c(OC)ncnc2C2CC2)nc1NCc1ccc(-c2nc(C(F)(F)F)cn2C)cc1 [Example 132, 4'-Cyclopropyl-5-ethynyl-6'-methoxy-N-(4-(1-methyl-4-(trifluoromethyl)-1H-imidazol-2-yl)benzyl)-[2,5'-bipyrimidin]-4-amine]
18 | 2.1 | 12.3 | COc1cnc(-c2cccnc2C(C)C)nc1NCc1ccc(-n2nc(C(F)(F)F)cc2C)cc1 [Example 158, 2-(2-Isopropylpyridin-3-yl)-5-methoxy-N-(4-(5-methyl-3-(trifluoromethyl)-1H-pyrazol-1-yl)benzyl)pyrimidin-4-amine]
19 | 7.6 | 113 | COc1cnc(-c2ccccc2C(C)C)nc1NCC1CCN(c2ccccn2)CC1 [Example 5, 2-(2-Isopropylphenyl)-5-methoxy-N-((1-(pyridin-2-yl)piperidin-4-yl)methyl)pyrimidin-4-amine]
20 | 22.4 | 950 | CC(C)c1ccccc1-c1nc(NCc2ccc(-c3ccccn3)cc2)c2[nH]ccc2n1 [Example 36, 2-(2-Isopropylphenyl)-N-(4-(pyridin-2-yl)benzyl)-5H-pyrrolo[3,2-d]pyrimidin-4-amine]
21 | 3.4 | 25.4 | COc1cnc(-c2cccnc2C2CC2)nc1NCc1ccc(-c2nc(C(F)(F)F)cn2C)cc1 [Example 153, 2-(2-Cyclopropylpyridin-3-yl)-5-methoxy-N-(4-(1-methyl-4-(trifluoromethyl)-1H-imidazol-2-yl)benzyl)pyrimidin-4-amine]
